Series [1] concerns the target T1, cellular cGAS activity in baculovirus-stimulated THP1-Dual cells (Homo sapiens (Human), UniProt Q8N884). To be noted: Table 4; compounds and methyl ester prodrugs of PCT/EP2022/062480 and PCT/EP2022/062496; read-out: THP1(vir) IC50; cited from earlier work.
In series [2] the target is cellular cGAS activity in dsDNA-stimulated human whole blood (Homo sapiens (Human), UniProt Q8N884). To be noted: Table 4; compounds and methyl ester prodrugs of PCT/EP2022/062480 and PCT/EP2022/062496; read-out: hWB IC50; cited from earlier work.
Chain of cellular cGAS activity in dsDNA-stimulated human whole blood (Q8N884 whole entry): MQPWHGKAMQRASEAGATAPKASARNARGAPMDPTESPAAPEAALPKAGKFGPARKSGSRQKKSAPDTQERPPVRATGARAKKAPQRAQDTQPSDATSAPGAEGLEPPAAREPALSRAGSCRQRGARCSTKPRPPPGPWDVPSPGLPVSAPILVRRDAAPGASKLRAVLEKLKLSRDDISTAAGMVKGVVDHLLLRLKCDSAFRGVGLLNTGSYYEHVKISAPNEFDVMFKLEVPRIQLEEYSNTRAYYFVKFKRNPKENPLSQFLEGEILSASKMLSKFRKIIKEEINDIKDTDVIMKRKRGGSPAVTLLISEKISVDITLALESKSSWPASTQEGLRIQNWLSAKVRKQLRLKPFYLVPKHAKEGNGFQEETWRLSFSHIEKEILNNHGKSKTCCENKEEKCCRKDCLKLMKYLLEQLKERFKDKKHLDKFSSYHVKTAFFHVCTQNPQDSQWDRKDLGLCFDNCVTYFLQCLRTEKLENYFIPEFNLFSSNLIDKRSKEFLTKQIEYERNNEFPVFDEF
Series [3] deals with pathway directly downstream of cGAS in cGAMP-stimulated THP1-Dual cells. To be noted: Table 4; compounds and methyl ester prodrugs of PCT/EP2022/062480 and PCT/EP2022/062496; cited from earlier work.
Series [4] shares this test system. The series is described as follows: cGAMP stimulated counter cell assay (THP1(cGAMP) IC50): IFN induction in cGAMP-stimulated THP1-Dual cells. The format is cell-based, human. To be noted: Homo sapiens, THP1-Dual; Table 3; Compound No. 5 of WO 2022/174012; read-out: THP1(cGAMP) IC50. In a few lines:
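THP1-Dual cells with IRF-driven Lucia luciferase reporter, stimulated by empty baculovirus (cGAS route) or by cGAMP (counter assay); 5000 cells/well, 8-point dilutions from 10 μM top, 1% DMSO, 18 h at 37° C. Luminescence read; IC50 by 4-parameter logistic fit against unstimulated low control.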

Series [5] addresses T1, cellular cGAS activity in baculovirus-stimulated THP1-Dual cells. Put plainly: Human cGAS cell assay (THP1(vir) IC50): IFN induction in virus-stimulated THP1-Dual cells, IRF Lucia luciferase reporter.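 Note: Eight-point dilution series starting at 10 µM, 1% DMSO, 18 h at 37 °C, luminescence read-out, virus-free wells as 0% and DMSO-treated virus-stimulated wells as 100%.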 Conditions: Table 3; Compound No. 5 of WO 2022/174012; read-out: THP1(vir) IC50. It is filed as cell-based. A general note: Reporter assays use an easily measured gene product as a stand-in for the process of interest.

For a further series, the target named is Human cGAS enzyme (Homo sapiens (Human), UniProt Q8N884). Put plainly: Human cGAS enzyme assay (hcGAS IC50, in vitro), cGAMP formation by RapidFire MS.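 Note: recombinant human cGAS activated by 45 bp dsDNA with 30 µM each ATP and GTP, 90 min, cGAMP vs cyclic-di-GMP standard by MS, 8-point titration from 10 µM.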 It is filed as biochemical. Conditions: Table 3; Compound No. 5 of WO 2022/174012 re-tested in the applicant's assay.
Chain of Human cGAS enzyme (Q8N884 whole entry): as above
In a further series the test system is THP-1. To be noted: Table 3, page 67/68 of WO 2022/174012; read-out: cellular IC50-value group (IFNβ ELISA stimulated with THP-1); cited from earlier work. In general terms: In an ELISA, binding on a coated surface is turned into a signal by an enzyme label.
The conditions of series [6]: amide bond, HATU, 25.0 °C, 1.0 h.

Like-named read-outs stand apart in the source and are kept apart here.

In general, IC50 refers to the concentration needed to halve the response being measured.

T1 sequence (Q8N884 whole entry): as above

Consider `COC(=O)[C@@H]1C[C@H](Oc2ncc(Br)cc2N2CCOC3(COC3)[C@@H]2C)CN1c1nc(C(F)(F)F)nc2c1oc1ccccc12` [P02 of PCT/EP2022/062480], for which the IC50 in series [1] was 444 nM; in series [2], 5330 nM; in series [3], 17100 nM.
With `COC(=O)[C@@H]1C[C@H](Oc2ncccc2N2CCOC3(COC3)[C@@H]2C)CN1c1nc(C(F)F)nc2c1oc1ccccc12` [P01 of PCT/EP2022/062480], the IC50 in series [1] is 358 nM; in series [2] it was 1310 nM; in series [3], 26100 nM.
As for `C[C@@H]1N(c2cc(Br)cnc2O[C@H]2C[C@@H](C(=O)O)N(c3nc(C(F)(F)F)nc4c3oc3ccccc34)C2)CCOC12COC2` [Ex. 1.10 of PCT/EP2022/062480], the IC50 in series [1] is 91 nM; in series [2] it was 33 nM; in series [3] it was 16100 nM.
`COC(=O)[C@@H]1C[C@H](Oc2ncc(-c3cccnc3OC)cc2N2CCOC3(COC3)[C@@H]2C)CN1c1nc(C(F)(F)F)nc2c1oc1ccccc12` [P04 of PCT/EP2022/062480]: the results for the half-inhibitory concentration (IC50) in series [1], in series [2] and in series [3] were 67 nM, 2750 nM and over 16600 nM, respectively.
Turning to `C#Cc1cnc(O[C@H]2C[C@@H](C(=O)O)N(c3nc(C(F)(F)F)nc4c3oc3ccccc34)C2)c([C@@]2(F)CCS(=O)(=O)C[C@@H]2C)c1` [Ex. 2.12 of PCT/EP2022/062496], the IC50 in series [1] is 8 nM; in series [2] it was 8 nM; in series [3], 21800 nM.
In the case of `C[C@@H]1N(c2cccnc2O[C@H]2C[C@@H](C(=O)O)N(c3nc(C(F)F)nc4c3oc3ccccc34)C2)CCOC12COC2` [Ex. 4.04 of PCT/EP2022/062480], the IC50 in series [1] is 386 nM; in series [2], 77 nM; in series [3], over 16600 nM.
For the compound `Cc1nc(N2C[C@@H](CC(=O)Nc3ccc(-c4ccccc4)cc3)C[C@H]2C(=O)O)c2oc3ccccc3c2n1` [Compound 5 (BBL0100455), reference compound], the IC50 in series [4] was over 10000 nM; in series [5] it was over 10000 nM; on Human cGAS enzyme, 55 nM; in the series with THP-1, under 1000 nM.
`COC(=O)[C@@H]1C[C@H](Oc2ncc(Cl)cc2[C@@]2(OC)CC(C)(C)S(=O)(=O)C[C@@H]2C)CN1c1nc(C(F)F)nc2c1oc1ccccc12` [P03 of PCT/EP2022/062496]: the half-inhibitory concentration (IC50) in series [1] was 202 nM; in series [2], 1990 nM; in series [3] it was 20600 nM.
Consider `C[C@H]1CN2CC[C@]1(F)c1cc(Cl)cnc1O[C@H]1C[C@@H](C(=O)OC(C)(C)C)N(C1)c1nc(nc3c1oc1ccccc13)CC(=O)NCCOC2=O`, for which the ring closure, yield of all isomers in series [6] (from C[C@H]1CN(C(=O)OCCN)CC[C@]1(F)c1cc(Cl)cnc1O[C@H]1C[C@@H](C(=O)OC(C)(C)C)N(c2nc(CC(=O)O)nc3c2oc2ccccc23)C1, DMA, 15.75 mM) was determined as 11.3%.
In the case of `COc1ncccc1-c1cnc(O[C@H]2C[C@@H](C(=O)O)N(c3nc(C(F)(F)F)nc4c3oc3ccccc34)C2)c(N2CCOC3(COC3)[C@@H]2C)c1` [Ex. 3.14 of PCT/EP2022/062480], the IC50 in series [1] is 10 nM; in series [2], 26 nM; in series [3], 7830 nM.
For the compound `C[C@H]1CS(=O)(=O)CC[C@]1(F)c1cc(Cl)cnc1O[C@H]1C[C@@H](C(=O)O)N(c2nc(C(F)F)nc3c2oc2ccccc23)C1` [Ex. 1.13 of PCT/EP2022/062496], the IC50 in series [1] is 6 nM; in series [2], 6 nM; in series [3], 22500 nM.
For the compound `COC(=O)[C@@H]1C[C@H](Oc2ncc(Cl)cc2[C@@]2(F)CCS(=O)(=O)C[C@@H]2C)CN1c1nc(C(F)F)nc2c1oc1ccccc12` [P02 of PCT/EP2022/062496], the IC50 in series [1] was 29 nM; in series [2], 140 nM; in series [3] it was over 16600 nM.
`CO[C@]1(c2cc(Cl)cnc2O[C@H]2C[C@@H](C(=O)O)N(c3nc(C(F)F)nc4c3oc3ccccc34)C2)CC(C)(C)S(=O)(=O)C[C@@H]1C` [Ex. 1.05 of PCT/EP2022/062496]: the IC50 in series [1] is 44 nM; in series [2] it was 135 nM; in series [3] it was 13200 nM.
On to `C#Cc1cnc(O[C@H]2C[C@@H](C(=O)OC)N(c3nc(C(F)(F)F)nc4c3oc3ccccc34)C2)c(N2CCOC3(COC3)[C@@H]2C)c1` [P03 of PCT/EP2022/062480], for which the results for the IC50 in series [1], in series [2] and in series [3] were 188 nM, 1090 nM and 22800 nM, respectively.
In the case of `C#Cc1cnc(O[C@H]2C[C@@H](C(=O)OC)N(c3nc(C(F)(F)F)nc4c3oc3ccccc34)C2)c([C@@]2(F)CCS(=O)(=O)C[C@@H]2C)c1` [P01 of PCT/EP2022/062496], the values for the IC50 in series [1], in series [2] and in series [3] were 11 nM, 67 nM and over 16600 nM, respectively.
`C[C@H]1CN2CC[C@]1(F)c1cc(Cl)cnc1O[C@H]1C[C@@H](C(=O)OC(C)(C)C)N(C1)c1nc(nc3c1oc1ccccc13)CC(=O)NCCCC2=O` had a ring closure, yield of all isomers in series [6] (from C[C@H]1CN(C(=O)CCCN)CC[C@]1(F)c1cc(Cl)cnc1O[C@H]1C[C@@H](C(=O)OC(C)(C)C)N(c2nc(CC(=O)O)nc3c2oc2ccccc23)C1, DMF, 10.0 mM) of 42%.
For `C#Cc1cnc(O[C@H]2C[C@@H](C(=O)O)N(c3nc(C(F)(F)F)nc4c3oc3ccccc34)C2)c(N2CCOC3(COC3)[C@@H]2C)c1` [Ex. 1.12 of PCT/EP2022/062480], the IC50 was 7 nM in series [1], 15 nM in series [2] and 11900 nM in series [3].

Source of the values: patent US20240189315A1, “Cyclic Pyridine Derivatives as cGAS Inhibitors” (Boehringer Ingelheim International GmbH, priority 2022, published 2024).
